For orientation: IC50 means the point on the concentration scale where inhibition reaches its midpoint. Read a high IC50 as lower potency. By Papp is commonly meant a coefficient for how fast a substance crosses the barrier. Usually EC50 stands for the concentration needed to bring the measured effect to its halfway point.

The first data set addresses T1, Notum(81–451 Cys330Ser) (Homo sapiens, UniProt Q6P988, C330S).
T1 sequence (Q6P988 81-451 C330S): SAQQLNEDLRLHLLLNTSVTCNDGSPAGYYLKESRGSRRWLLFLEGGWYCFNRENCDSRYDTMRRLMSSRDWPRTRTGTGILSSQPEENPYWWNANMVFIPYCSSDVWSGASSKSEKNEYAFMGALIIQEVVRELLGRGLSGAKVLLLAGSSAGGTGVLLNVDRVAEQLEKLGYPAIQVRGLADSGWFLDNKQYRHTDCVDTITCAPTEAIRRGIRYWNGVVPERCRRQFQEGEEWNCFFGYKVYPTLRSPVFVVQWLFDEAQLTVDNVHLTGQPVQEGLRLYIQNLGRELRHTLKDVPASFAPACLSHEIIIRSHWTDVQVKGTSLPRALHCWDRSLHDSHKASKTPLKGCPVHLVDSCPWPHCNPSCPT
In words: Notum biochemical OPTS assay (carboxylesterase activity). Conditions: OPTS substrate, 1 h incubation; geometric mean ± s.d.
Consider `Cc1sc2ncnc(SCC(=O)N3CCn4nc(C(F)(F)F)nc4C3)c2c1Cl` [Compound 5v], for which the midpoint of inhibition, the IC50, lay at 18 ± 5 nM.

The compound `Cc1cc2c(SCC(=O)O)ncnc2s1` [Compound 6] gave an IC50 of 790 ± 70 nM.

`Cc1nc(SCC(=O)O)c2c(C)c(C)sc2n1` [Compound 8] yielded a half-maximal inhibitory concentration (IC50) of 2100 nM.

In turn, `Cc1c(C(F)(F)F)sc2ncnc(SCC(=O)O)c12` [Compound 9] came in with an IC50 of 1 ± 0.4 nM. Against the preceding compound, the IC50 is about 2100-fold lower.

Consider `Cc1sc2ncnc(SCC(=O)O)c2c1C(F)(F)F` [Compound 10], for which the IC50 is 3.9 ± 0.7 nM.

With `Cc1c(C#N)sc2ncnc(SCC(=O)O)c12` [Compound 11, 2-((6-cyano-5-methylthieno[2,3-d]pyrimidin-4-yl)thio)acetic acid], inhibition was half-maximal at 25 ± 4 nM (IC50).

On to `N#Cc1sc2c(SCC(=O)O)ncnc2c1C1CC1` [Compound 12], for which the half-maximal inhibitory concentration (IC50) came to 8.1 nM.

Turning to `O=C(O)CSc1ncnc2[nH]ccc12` [Compound 13], the IC50 came to 77000 nM. This IC50 is about 9500-fold higher than that of the compound before.

`O=C(O)CSc1ncnc2[nH]cc(Cl)c12` [Compound 14] registered an IC50 of 20000 nM. This IC50 is about 3.9-fold lower than that of the compound before.

Compound `Cn1ccc2c(SCC(=O)O)ncnc21` [Compound 15, 2-((7-methyl-7H-pyrrolo[2,3-d]pyrimidin-4-yl)thio)acetic acid] showed an IC50 of 15000 nM.

Consider `O=C(O)CSc1ncnc2c1ccn2Cc1ccccc1` [Compound 16, 2-((7-benzyl-7H-pyrrolo[2,3-d]pyrimidin-4-yl)thio)acetic acid], for which the IC50 was 50000 nM.

`Cc1nn(C)c2ncnc(SCC(=O)O)c12` [Compound 17] gave an IC50 of 1100 nM.

The compound `Cc1oc2ncnc(SCC(=O)O)c2c1C` [Compound 18] registered an IC50 of 50 ± 14 nM.

Consider `Cc1c(C(F)(F)F)oc2ncnc(SCC(=O)O)c12` [Compound 19], for which inhibition was half-maximal at 3.2 ± 0.5 nM (IC50).

`Cc1sc2ncnc(SCC(=O)N3CC(=O)N(C)C3)c2c1C` [Compound 21] came in with a half-inhibitory concentration (IC50) of 9.4 ± 1.5 nM. Compared with the last compound, the IC50 is about 2.9-fold higher.

Take `Cc1c(C(F)(F)F)sc2ncnc(SCC(=O)N3CC(=O)N(C)C3)c12` [Compound 22]: the IC50 stood at 1.6 ± 0.1 nM. This IC50 lies about 5.9-fold lower than the previous one.

`Cc1sc2ncnc(SCC(=O)N3CC(=O)N(C)C3)c2c1C(F)(F)F` [Compound 23] displayed a 50% inhibitory concentration (IC50) of 7 ± 2.5 nM.

Still in this data set, the particulars now being: relative to 1.
Turning to `Cc1nn(C)c2ncnc(SCC(=O)O)c12` [Compound 17], the “fold weaker Notum inhibition than 1” value was 1000 fold.

The data set is the same for the next values; noted with them: relative to thiophene analogue 7.
Turning to `Cc1oc2ncnc(SCC(=O)O)c2c1C` [Compound 18], the “fold weaker Notum inhibition than 7” value is recorded as 10 fold.

Tested on in the next data set: not listed separately
The data set is described as follows: Metabolic stability in mouse liver microsomes (MLM). Type of data set: in vitro ADME. Conditions: mouse liver microsomes. Background: Microsomes from liver hold many membrane-bound enzymes, among them those of drug oxidation.
Turning to `Cc1sc2ncnc(SCC(=O)N3CCn4nc(C(F)(F)F)nc4C3)c2c1Cl` [Compound 5v], the “MLM Cli” value came to 140 µL/min/mg.

In the case of `CN1CN(C(=O)CSc2ncnc3c(C4CC4)c(Cl)sc23)CC1=O` [Compound 20], the “MLM Cli” value stood at 45 µL/min/mg.

With `Cc1sc2ncnc(SCC(=O)N3CC(=O)N(C)C3)c2c1C` [Compound 21], the “MLM Cli” value came out at 31 µL/min/mg.

In the case of `Cc1c(C(F)(F)F)sc2ncnc(SCC(=O)N3CC(=O)N(C)C3)c12` [Compound 22], the “MLM Cli” value amounted to 27 µL/min/mg.

Consider `Cc1sc2ncnc(SCC(=O)N3CC(=O)N(C)C3)c2c1C(F)(F)F` [Compound 23], for which the “MLM Cli” value stood at 24 µL/min/mg.

The next data set concerns P-gp (MDR1). In words: MDCK-MDR1 cell permeability and efflux. Type of data set: in vitro ADME. As to conditions: dog, MDCK-MDR1, A to B direction; read-out: MDCK-MDR1 AB Papp.
As for `Cc1sc2ncnc(SCC(=O)N3CCn4nc(C(F)(F)F)nc4C3)c2c1Cl` [Compound 5v], the Papp turned out to be 15 ×10⁻⁶ cm/s.

Take `CN1CN(C(=O)CSc2ncnc3c(C4CC4)c(Cl)sc23)CC1=O` [Compound 20]: the Papp amounted to 5.9 ×10⁻⁶ cm/s.

`Cc1sc2ncnc(SCC(=O)N3CC(=O)N(C)C3)c2c1C` [Compound 21]: the Papp was found to be 21 ×10⁻⁶ cm/s.

Take `Cc1c(C(F)(F)F)sc2ncnc(SCC(=O)N3CC(=O)N(C)C3)c12` [Compound 22]: the apparent permeability (Papp) turned out to be 31 ×10⁻⁶ cm/s.

The data set is the same for the next values; noted with them: dog, MDCK-MDR1, B to A direction; read-out: MDCK-MDR1 BA Papp.
`Cc1sc2ncnc(SCC(=O)N3CCn4nc(C(F)(F)F)nc4C3)c2c1Cl` [Compound 5v]: the Papp is 27 ×10⁻⁶ cm/s.

In the case of `CN1CN(C(=O)CSc2ncnc3c(C4CC4)c(Cl)sc23)CC1=O` [Compound 20], the Papp was determined as 12 ×10⁻⁶ cm/s.

`Cc1sc2ncnc(SCC(=O)N3CC(=O)N(C)C3)c2c1C` [Compound 21]: the Papp is 45 ×10⁻⁶ cm/s.

In the case of `Cc1c(C(F)(F)F)sc2ncnc(SCC(=O)N3CC(=O)N(C)C3)c12` [Compound 22], the Papp was 35 ×10⁻⁶ cm/s.

The same data set, now with this note: dog, MDCK-MDR1; read-out: MDCK-MDR1 efflux ratio (ER).
On to `Cc1sc2ncnc(SCC(=O)N3CCn4nc(C(F)(F)F)nc4C3)c2c1Cl` [Compound 5v], for which the efflux ratio turned out to be 1.8.

For the compound `CN1CN(C(=O)CSc2ncnc3c(C4CC4)c(Cl)sc23)CC1=O` [Compound 20], the efflux ratio came out at 2.

For `Cc1sc2ncnc(SCC(=O)N3CC(=O)N(C)C3)c2c1C` [Compound 21], the efflux ratio was 2.1.

For `Cc1c(C(F)(F)F)sc2ncnc(SCC(=O)N3CC(=O)N(C)C3)c12` [Compound 22], the efflux ratio was found to be 1.1.

The test system of another data set is MDCK-MDR1 monolayer.
Assay: not given
Conditions: A to B direction; amides 4; cited from earlier work.
As for `O=C1CN(C(=O)CSc2ncnc3c(C4CC4)c(Cl)sc23)CN1` [Compound 4e], the “MDCK-MDR1 AB Papp” value is 3.8 ×10⁻⁶ cm/s.

As for `O=C(CSc1ncnc2c(C3CC3)c(Cl)sc12)N1CCn2cnnc2C1` [Compound 4f], the “MDCK-MDR1 AB Papp” value was 0.95 ×10⁻⁶ cm/s.

The same data set, now with this note: B to A direction; amides 4; cited from earlier work.
`O=C1CN(C(=O)CSc2ncnc3c(C4CC4)c(Cl)sc23)CN1` [Compound 4e]: the “MDCK-MDR1 BA Papp” value is 14 ×10⁻⁶ cm/s.

For `O=C(CSc1ncnc2c(C3CC3)c(Cl)sc12)N1CCn2cnnc2C1` [Compound 4f], the “MDCK-MDR1 BA Papp” value was 93 ×10⁻⁶ cm/s.

The next data set deals with T2, Notum (Homo sapiens, UniProt Q6P988).
T2 sequence (Q6P988 20-496): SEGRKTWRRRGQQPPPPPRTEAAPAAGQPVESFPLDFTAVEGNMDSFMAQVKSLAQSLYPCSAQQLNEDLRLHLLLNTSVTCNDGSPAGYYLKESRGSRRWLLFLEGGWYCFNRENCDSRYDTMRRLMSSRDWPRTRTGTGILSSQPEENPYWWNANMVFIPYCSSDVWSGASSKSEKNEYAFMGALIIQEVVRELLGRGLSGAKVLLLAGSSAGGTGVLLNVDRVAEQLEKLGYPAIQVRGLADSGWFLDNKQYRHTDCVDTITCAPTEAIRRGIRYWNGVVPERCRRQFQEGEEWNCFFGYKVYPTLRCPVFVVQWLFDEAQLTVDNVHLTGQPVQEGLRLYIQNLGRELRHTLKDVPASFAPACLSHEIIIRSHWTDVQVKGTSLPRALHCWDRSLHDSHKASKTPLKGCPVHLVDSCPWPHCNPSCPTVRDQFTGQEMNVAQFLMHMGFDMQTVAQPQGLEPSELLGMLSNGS
The data set is described as follows: Notum TCF/LEF reporter (Luciferase) HEK293 cell assay.
Conditions: not given
As to `CN1CN(C(=O)CSc2ncnc3c(C4CC4)c(Cl)sc23)CC1=O` [Compound 20], the EC50 was < 250 nM.

Staying with this data set, now noted: TCF/LEF reporter, rWNT3a 100 ng/mL, Notum 500 ng/mL.
In the case of `Cc1sc2ncnc(SCC(=O)N3CC(=O)N(C)C3)c2c1C` [Compound 21], the “Activation of Wnt signaling (in words)” value is “only modest activation of Wnt signaling”.

Still in this data set, the particulars now being: read-out: Notum EC50 (TCF-LEF); rWNT3a 100 ng/mL, Notum 500 ng/mL; geometric mean ± s.d., n = 3–4.
In the case of `CN1CN(C(=O)CSc2ncnc3c(C4CC4)c(Cl)sc23)CC1=O` [Compound 20], the EC50 is 110 nM.

As to `Cc1sc2ncnc(SCC(=O)N3CC(=O)N(C)C3)c2c1C` [Compound 21], the EC50 was 1300 nM.

On to `Cc1c(C(F)(F)F)sc2ncnc(SCC(=O)N3CC(=O)N(C)C3)c12` [Compound 22], for which the half-maximal effective concentration (EC50) is 210 nM.

In the case of `Cc1sc2ncnc(SCC(=O)N3CC(=O)N(C)C3)c2c1C(F)(F)F` [Compound 23], the EC50 is 170 nM.

These data come from PMC6961116, “Scaffold-hopping identifies furano[2,3-d]pyrimidine amides as potent Notum inhibitors” (Bioorganic & Medicinal Chemistry Letters, 2020).
